Legend:
Assay in all cases: relative viability (nuclei count vs DMSO), 5 days (fraction); higher = more cells survive
[1] = compound: COc1cc(Nc2c(C#N)cnc3cc(OCCCN4CCN(C)CC4)c(OC)cc23)c(Cl)cc1Cl [Bosutinib] + O=C(c1cc(Cc2n[nH]c(=O)c3ccccc23)ccc1F)N1CCN(C(=O)C2CC2)CC1 [Olaparib] (partner 8 µM)
Procedure, shortened: (§1)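 For relative viability, nuclei counts in treated wells were divided by those in vehicle wells. Lung cancer cell lines had been pin-tool dosed in 1536-well plates the day after seeding and cultured for 5 days, then fixed and stained in one step (final 0.05% Triton X-100, 1% formaldehyde, 1 ug/ml Hoechst) and imaged at 4×. Doses were one drug alone or a fixed anchor-drug dose plus five library-drug doses (not always all listed) in √10 steps, and values are duplicate-plate medians.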

[2] = compound: COc1cc(Nc2c(C#N)cnc3cc(OCCCN4CCN(C)CC4)c(OC)cc23)c(Cl)cc1Cl [Bosutinib] + C[C@]1(O)C[C@@H](c2nc(-c3ccc4ccc(-c5ccccc5)nc4c3)c3c(N)nccn32)C1 [Linsitinib] (partner 1 µM)
Procedure, shortened: as §1

[3] = compound: COc1cc(Nc2c(C#N)cnc3cc(OCCCN4CCN(C)CC4)c(OC)cc23)c(Cl)cc1Cl [Bosutinib] + Nc1nc2[nH]cc(CCc3ccc(C(=O)N[C@@H](CCC(=O)O)C(=O)O)cc3)c2c(=O)[nH]1 [Pemetrexed] (partner 0.2 µM)
Procedure, shortened: as §1

[4] = compound: COc1cc(Nc2c(C#N)cnc3cc(OCCCN4CCN(C)CC4)c(OC)cc23)c(Cl)cc1Cl [Bosutinib] + C[C@@H](Oc1cc(-c2cnn(C3CCNCC3)c2)cnc1N)c1c(Cl)ccc(F)c1Cl [Crizotinib] (partner 1 µM)
Procedure, shortened: as §1

[5] = compound: COc1cc(Nc2c(C#N)cnc3cc(OCCCN4CCN(C)CC4)c(OC)cc23)c(Cl)cc1Cl [Bosutinib] + CC(=O)Nc1cccc(-n2c(=O)n(C3CC3)c(=O)c3c(Nc4ccc(I)cc4F)n(C)c(=O)c(C)c32)c1 [Trametinib] (partner 0.02 µM)
Procedure, shortened: as §1

Cell Line | relative viability ([1]; first compound 0.01 µM) | relative viability ([1]; first compound 0.03162 µM) | relative viability ([1]; first compound 0.1 µM) | relative viability ([1]; first compound 1 µM) | relative viability ([2]; first compound 0.01 µM) | relative viability ([2]; first compound 0.03162 µM) | relative viability ([2]; first compound 0.1 µM) | relative viability ([2]; first compound 1 µM) | relative viability ([3]; first compound 0.01 µM) | relative viability ([3]; first compound 0.03162 µM) | relative viability ([3]; first compound 0.1 µM) | relative viability ([3]; first compound 1 µM) | relative viability ([4]; first compound 0.01 µM) | relative viability ([4]; first compound 0.03162 µM) | relative viability ([4]; first compound 0.1 µM) | relative viability ([4]; first compound 1 µM) | relative viability ([5]; first compound 0.01 µM) | relative viability ([5]; first compound 0.03162 µM) | relative viability ([5]; first compound 0.1 µM) | relative viability ([5]; first compound 1 µM)
NCI-H3122 | 0.678 | 0.653 | 0.658 | 0.559 | 0.981 | 0.995 | 1.09 | 0.989 | 0.201 | 0.199 | 0.207 | 0.202 | 0.287 | 0.282 | 0.328 | 0.322 | 0.203 | 0.273 | 0.205 | 0.256
PC-3 [JPC-3] | 1.08 | 1.09 | 1.06 | 0.663 | 0.954 | 0.957 | 0.971 | 0.912 | 1.1 | 1.08 | 1.11 | 0.688 | 0.899 | 0.939 | 0.978 | 0.942 | 0.725 | 0.691 | 0.647 | 0.467
PC-14 | 0.241 | 0.342 | 0.208 | 0.21 | 0.927 | 1.01 | 0.884 | 0.285 | 0.134 | 0.135 | 0.13 | 0.145 | 0.807 | 0.928 | 0.788 | 0.313 | 0.721 | 0.675 | 0.491 | 0.13
RERF-LC-KJ | 0.883 | 0.867 | 0.958 | 0.989 | 0.893 | 0.885 | 0.845 | 0.838 | 0.504 | 0.495 | 0.492 | 0.478 | 0.863 | 0.827 | 0.846 | 0.88 | 0.733 | 0.809 | 0.902 | 0.826
SK-LU-1 | 0.474 | 0.686 | 0.5 | 0.383 | 1.06 | 1.18 | 1.11 | 0.631 | 1.02 | 0.899 | 0.982 | 0.693 | 0.9 | 0.819 | 0.807 | 0.48 | 0.43 | 0.504 | 0.498 | 0.344
SK-MES-1 | 0.671 | 0.896 | 0.798 | 0.458 | 1.16 | 1.07 | 1.08 | 0.941 | 0.94 | 1.03 | 0.938 | 0.556 | 0.954 | 1.03 | 0.997 | 0.96 | 0.55 | 0.547 | 0.547 | 0.39
SW 1573 | 0.533 | 0.457 | 0.528 | 0.484 | 0.778 | 0.75 | 0.807 | 0.801 | 0.796 | 0.791 | 0.911 | 0.838 | 0.655 | 0.813 | 0.917 | 0.782 | 0.571 | 0.614 | 0.652 | 0.504
UMC-11 | 0.64 | 0.672 | 0.248 | 0.686 | 0.916 | 0.981 | 0.967 | 0.866 | 0.795 | 0.755 | 0.807 | 0.707 | 0.597 | 0.622 | 0.555 | 0.579 | 0.724 | 0.723 | 0.686 | 0.678
